Reference: the CheMixHub viscosity set

Assay: xn = mol fraction of the nth substance listed

CS(C)=O + CCO
Settings	viscosity [mPa·s]
293.15 K, 100 kPa, x2 = 0.08	2.021
293.15 K, 100 kPa, x2 = 0.16	1.873
293.15 K, 100 kPa, x2 = 0.23	1.756
293.15 K, 100 kPa, x2 = 0.3	1.666
293.15 K, 100 kPa, x2 = 0.36	1.572
298.15 K, 100 kPa, x2 = 0.08	1.828
298.15 K, 100 kPa, x2 = 0.16	1.701
298.15 K, 100 kPa, x2 = 0.23	1.598
298.15 K, 100 kPa, x2 = 0.3	1.517
298.15 K, 100 kPa, x2 = 0.36	1.436
298.15 K, 101 kPa, x1 = 0.061	1.182
298.15 K, 101 kPa, x1 = 0.2	1.291
298.15 K, 101 kPa, x1 = 0.37	1.466
298.15 K, 101.3 kPa, x1 = 0.0616	1.015
298.15 K, 101.3 kPa, x1 = 0.1286	1.021
298.15 K, 101.3 kPa, x1 = 0.2019	1.022
298.15 K, 101.3 kPa, x1 = 0.2801	1.056
298.15 K, 101.3 kPa, x1 = 0.3708	1.114
298.15 K, 101.3 kPa, x1 = 0.4693	1.187
298.15 K, 101.3 kPa, x1 = 0.5814	1.298
298.15 K, 101.3 kPa, x1 = 0.7023	1.454
298.15 K, 101.3 kPa, x1 = 0.7609	1.538
298.15 K, 101.3 kPa, x1 = 0.8414	1.657
298.15 K, 101.3 kPa, x1 = 0.933	1.851
298.15 K, 101.31 kPa, x1 = 0.1026	1.034
298.15 K, 101.31 kPa, x1 = 0.1971	1.029
298.15 K, 101.31 kPa, x1 = 0.2892	1.061
298.15 K, 101.31 kPa, x1 = 0.4043	1.137
298.15 K, 101.31 kPa, x1 = 0.5029	1.234
298.15 K, 101.31 kPa, x1 = 0.62	1.352
298.15 K, 101.31 kPa, x1 = 0.7117	1.491
298.15 K, 101.31 kPa, x1 = 0.8036	1.634
298.15 K, 101.31 kPa, x1 = 0.9017	1.807
299 K, 101 kPa, x1 = 0.0519	1.711
299 K, 101 kPa, x1 = 0.1593	1.696
299 K, 101 kPa, x1 = 0.3301	1.895
299 K, 101 kPa, x1 = 0.451	2.099
299 K, 101 kPa, x1 = 0.5779	2.34
299 K, 101 kPa, x1 = 0.7807	2.572
303.15 K, 100 kPa, x2 = 0.16	1.552
303.15 K, 100 kPa, x2 = 0.3	1.39
303.15 K, 100 kPa, x2 = 0.36	1.317
303.15 K, 101 kPa, x1 = 0.2	1.191
303.15 K, 101 kPa, x1 = 0.2004	1.205
303.15 K, 101 kPa, x1 = 0.37	1.366
303.15 K, 101.3 kPa, x1 = 0.0616	0.966
303.15 K, 101.3 kPa, x1 = 0.1286	0.932
303.15 K, 101.3 kPa, x1 = 0.2019	0.884
303.15 K, 101.3 kPa, x1 = 0.2801	0.904
303.15 K, 101.3 kPa, x1 = 0.3708	0.938
303.15 K, 101.3 kPa, x1 = 0.4693	1.064
303.15 K, 101.3 kPa, x1 = 0.5814	1.201
303.15 K, 101.3 kPa, x1 = 0.7023	1.354
303.15 K, 101.3 kPa, x1 = 0.7609	1.481
303.15 K, 101.3 kPa, x1 = 0.933	1.685
308.15 K, 100 kPa, x2 = 0.16	1.426
308.15 K, 100 kPa, x2 = 0.3	1.28
308.15 K, 100 kPa, x2 = 0.36	1.213
308.15 K, 101 kPa, x1 = 0.061	1.002
308.15 K, 101 kPa, x1 = 0.2	1.091
308.15 K, 101 kPa, x1 = 0.37	1.266
308.15 K, 101.31 kPa, x1 = 0.1026	0.882
308.15 K, 101.31 kPa, x1 = 0.1971	0.893
308.15 K, 101.31 kPa, x1 = 0.2892	0.916
308.15 K, 101.31 kPa, x1 = 0.4043	0.981
308.15 K, 101.31 kPa, x1 = 0.5029	1.056
308.15 K, 101.31 kPa, x1 = 0.62	1.159
308.15 K, 101.31 kPa, x1 = 0.7117	1.26
308.15 K, 101.31 kPa, x1 = 0.8036	1.375
308.15 K, 101.31 kPa, x1 = 0.9017	1.511
313.15 K, 100 kPa, x2 = 0.08	1.402
313.15 K, 100 kPa, x2 = 0.16	1.312
313.15 K, 100 kPa, x2 = 0.23	1.237
313.15 K, 100 kPa, x2 = 0.3	1.181
313.15 K, 100 kPa, x2 = 0.36	1.121
318.15 K, 101.31 kPa, x1 = 0.1026	0.745
318.15 K, 101.31 kPa, x1 = 0.1971	0.753
318.15 K, 101.31 kPa, x1 = 0.2892	0.782
318.15 K, 101.31 kPa, x1 = 0.4043	0.835
318.15 K, 101.31 kPa, x1 = 0.5029	0.908
318.15 K, 101.31 kPa, x1 = 0.62	0.994
318.15 K, 101.31 kPa, x1 = 0.7117	1.067
318.15 K, 101.31 kPa, x1 = 0.8036	1.171
318.15 K, 101.31 kPa, x1 = 0.9017	1.28
323.15 K, 101 kPa, x1 = 0.8011	1.125

C1CCCCCCC1 + Cc1cccc(C)c1
viscosity [mPa·s], 101 kPa
Settings	x2 = 0.1149	x2 = 0.1922	x2 = 0.2902	x2 = 0.412	x2 = 0.4831	x2 = 0.6078	x2 = 0.6874	x2 = 0.7916	x2 = 0.9058
308.15 K	1.376	1.182	1.004	0.8506	0.7816	0.6836	0.64	0.5877	0.5525
313.15 K	1.266	1.085	0.9357	0.7866	0.734	0.6372	0.6046	0.5645	0.5202

OC1CCCCC1 + Cc1ccc(Cl)cc1
303.15 K, 101 kPa
Settings	viscosity [mPa·s]
x1 = 0.1115	4.565
x1 = 0.2202	8.427
x1 = 0.3262	12.25
x1 = 0.4296	16.24
x1 = 0.5305	20.28
x1 = 0.6289	24.45
x1 = 0.725	28.53
x1 = 0.8188	32.85
x1 = 0.9105	36.99
